The target in this assay is T1, Androgen Receptor (AR) (Homo sapiens, UniProt P10275, T878A).
T1 construct: cell based immuno-fluorescence assay using the LNCaP prostate epithelial cell line; endogenous in cells; host or cells: LNCaP clone FGC (ATCC CRL-1740)
T1 sequence (P10275 1-920 T878A): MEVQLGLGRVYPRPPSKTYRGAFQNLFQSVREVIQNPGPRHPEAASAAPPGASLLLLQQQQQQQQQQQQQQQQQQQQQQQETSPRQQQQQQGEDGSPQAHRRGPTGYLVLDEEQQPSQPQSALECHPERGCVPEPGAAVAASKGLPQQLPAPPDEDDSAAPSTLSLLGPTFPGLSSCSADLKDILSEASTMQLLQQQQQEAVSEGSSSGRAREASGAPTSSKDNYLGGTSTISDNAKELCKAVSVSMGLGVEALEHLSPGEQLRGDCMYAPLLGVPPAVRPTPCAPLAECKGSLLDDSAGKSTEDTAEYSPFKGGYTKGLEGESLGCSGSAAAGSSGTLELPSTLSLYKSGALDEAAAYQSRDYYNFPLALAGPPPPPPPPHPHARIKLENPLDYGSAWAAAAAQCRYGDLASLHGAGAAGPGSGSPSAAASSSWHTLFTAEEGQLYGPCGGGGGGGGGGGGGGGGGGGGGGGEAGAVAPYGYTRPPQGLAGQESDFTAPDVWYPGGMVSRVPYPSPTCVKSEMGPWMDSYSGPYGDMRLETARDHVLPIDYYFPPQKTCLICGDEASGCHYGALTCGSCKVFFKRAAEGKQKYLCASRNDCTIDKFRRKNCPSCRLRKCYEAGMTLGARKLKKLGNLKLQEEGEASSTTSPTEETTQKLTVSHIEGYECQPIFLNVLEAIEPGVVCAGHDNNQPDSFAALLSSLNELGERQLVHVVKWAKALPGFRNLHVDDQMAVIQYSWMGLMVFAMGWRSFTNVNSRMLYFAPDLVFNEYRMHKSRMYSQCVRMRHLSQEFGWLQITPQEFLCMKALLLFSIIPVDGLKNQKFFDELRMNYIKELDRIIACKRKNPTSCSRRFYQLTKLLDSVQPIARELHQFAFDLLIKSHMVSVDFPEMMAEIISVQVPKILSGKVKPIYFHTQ
Kind of assay: LNCaP Androgen Receptor Down-regulation Cell Assay (immunofluorescence end point). The note with it: LNCaP prostate carcinoma cells, compound incubation 20-22 hours, 50% reduction of the AR signal; read-out: Androgen Receptor Down-regulation Assay (a) IC50/μM. The format is cell-based. As to the method: The ability of compounds to reduce Androgen Receptor (AR) numbers was assessed in a cell based immuno-fluorescence assay using the LNCaP prostate epithelial cell line.
a) LNCaP Androgen Receptor Down-regulation Cell Assay
A 5 ml volume of Growth Medium was added to each flask (as above except that 5% (v/v) charcoal stripped FBS (HyClone Code no. SH30068.03) was included instead of 10% (v/v) FBS). Cells were syringed at least twice using a sterile 18G×1.5″ (1.2×40 mm) broad gauge needle and cell density was measured using a haemocytometer.
Test data reported herein was generated using two different compounds preparation and dosing methods. In method (1) a 10 mM compound stock solution in 100% (v/v) DMSO was serially diluted in 4-fold steps in 100% (v/v) DMSO using a Thermo Scientific Matrix SerialMate. The diluted compounds were then further diluted 1 in 30 in assay media using a Thermo Scientific Matrix PlateMate and a 10 μl aliquot of this dilution was dosed to cells manually using a multi-channel pipette. In method (2) starting with a 10 mM compound stock solution, the Labcyte Echo 550 was used to generate a compound concentration response set diluted in 30 μl of assay media. The Echo 550 is a liquid handler that uses acoustic technology to perform direct microplate-to-microplate transfers of DMSO compound solutions. The system can be programmed to transfer volumes as low as […] in multiple increments between microplates and in so doing generates a serial dilution of compound which is then back-filled to normalise the DMSO concentration across the dilution range. A 10 μl volume of diluted compound is then dosed to cells using a Thermo Scientific Matrix PlateMate.
Plates were incubated overnight at 37° C., 5% CO2. Wells were then dosed with compound prepared by one of the 2 methods above and further incubated for 20-22 hours at 37° C., 5% CO2. […] This fixative solution was removed and cells were washed with 250 μl of PBS/0.05% (v/v) Tween 20 (PBST) using an automated plate washer. This process was then repeated twice more.
Immunostaining was performed at room temperature. Cells were permeabilised by the addition of 35 μl of PBS containing 0.5% Tween 20 and incubated for 1 hour at room temperature. Permeabilisation solution was removed and cells were washed with 250 μl of PBST using an automated plate washer. This process was then repeated twice more. 35 μl of Blocking Solution (PBST containing 3% (w/v) Marvel dried skimmed milk (Nestle)) was added to each well and plates were incubated at room temperature for a minimum of 1 hour. […] Then this primary antibody solution was removed from the wells followed by 3×100 μl PBST washes using a plate washer. […] Henceforth, wherever possible, plates were protected from light exposure. The plates were incubated for 1 hour and then the secondary antibody solution was removed from the wells followed by 3×100 ul PBST washes using a plate washer. Then 50 μl of PBST was added to each well and plates were covered with a black plate seal and stored at 4° C. before being read. Plates were read within six hours of completing the immunostaining.
The Green Fluorescent AR-associated signal in each well was measured using an Acumen Explorer HTS Reader (TTP Labtech Ltd., Cambridge). […] The instrument is a laser-scanning fluorescence microplate cytometer which samples the well at regular intervals and uses threshold algorithms to identify all fluorescent intensities above the solution background without the need to generate and analyse an image. These fluorescent objects can be quantified and provide a measure of the AR levels in cells. Fluorescence dose response data obtained with each compound was exported into a suitable software package (such as Origin) to perform curve fitting analysis. Down-regulation of AR levels was expressed as an IC50 value.
As to `CN(CCO)C(=O)c1ccc(C2CCN(c3ccc4nnc(C(F)(F)F)n4n3)CC2)cc1` [Example 630], the DC50 came out at 2.4 µM.

As to `N#Cc1ccc(O[C@@H]2CCN(c3ccc4nnc(C(F)(F)F)n4n3)C2)cc1` [Example 580], the DC50 was found to be 2 µM.

As to `COc1cccc(S(=O)(=O)N2CCN(c3ccc4nnc(C(F)(F)F)n4n3)CC2)c1` [Example 396], the DC50 was 1.8 µM.

With `Fc1cccc(CN2CCCN(c3ccc4nnc(C(F)(F)F)n4n3)CC2)c1` [Example 172, 6-[4-[(3-fluorophenyl)methyl]-1,4-diazepan-1-yl]-3-(trifluoromethyl)-[1,2,4]triazolo[4,3-b]pyridazine], the DC50 was determined as 0.81 µM.

In the case of `FC(F)(F)c1nnc2ccc(N3CCN(CCc4ccccc4)CC3)nn12` [Example 23, 6-(4-phenethylpiperazin-1-yl)-3-(trifluoromethyl)-[1,2,4]triazolo[4,3-b]pyridazine], the DC50 is 0.45 µM.

Turning to `N#Cc1ccc(CN2CCN(c3ccc4nnc(C(F)(F)F)n4n3)CC2)c(F)c1` [Example 389], the DC50 is 1.5 µM.

As to `FC(F)(F)c1nnc2ccc(N3CC4CN(Cc5cncc(Br)c5)CC4C3)nn12` (centres unmarked) [Example 794], the DC50 came to 1.1 µM.

`COc1ccc(CN2CCN(c3ccc4nnc(C(F)F)n4n3)CC2)c(F)c1` [Example 253]: the DC50 stood at 3.7 µM.

With `O=C(CN1CCOCC1)Nc1ccc(C2CCN(c3ccc4nnc(C(F)(F)F)n4n3)CC2)cc1` [Example 710], the DC50 turned out to be 2.1 µM.

Take `Cn1nccc1CCOc1ccc(N2CCN(c3ccc4nnc(C(F)(F)F)n4n3)CC2)cc1` [Example 514, 6-[4-[4-[2-(1-methyl-1H-pyrazol-5-yl)ethoxy]phenyl]piperazin-1-yl]-3-(trifluoromethyl)[1,2,4]triazolo[4,3-b]pyridazine]: the DC50 was determined as 0.87 µM.

On to `COc1ccc(OC2CCN(c3ccc4nnc(C(F)(F)F)n4n3)CC2)cc1` [Example 528], for which the DC50 was found to be 2.2 µM.

As for `C[C@H]1CN(Cc2ccccn2)CCN1c1ccc2nnc(C(F)(F)F)n2n1` [Example 359], the DC50 was determined as 2.6 µM.

For `FC(F)(Cl)c1nnc2ccc(N3CCCC(c4ccccc4)CC3)nn12` (centres unmarked) [Example 355, 3-[chloro(difluoro)methyl]-6-(4-phenylazepan-1-yl)[1,2,4]triazolo[4,3-b]pyridazine], the DC50 was found to be 0.72 µM.

Take `O=C(c1ccc(C2CCN(c3ccc4nnc(C(F)(F)F)n4n3)CC2)cc1)N1CCC(O)CC1` [Example 740]: the DC50 came to 2 µM.

With `N#Cc1ccc(OC2CCN(c3ccc4nnc(C(F)(F)F)n4n3)CC2)cc1` [Example 627], the DC50 amounted to 1.7 µM.

`O=C1OCc2ccccc2N1C1CCN(c2ccc3nnc(C(F)(F)F)n3n2)CC1` [Example 39, 1-[1-[3-(trifluoromethyl)-[1,2,4]triazolo[4,3-b]pyridazin-6-yl]piperidin-4-yl]-4H-3,1-benzoxazin-2-one]: the DC50 is 5 µM.

With `N#Cc1ccc(CN2CCN(c3ccc4nnc(C(F)(F)Cl)n4n3)CC2)cc1` [Example 342], the DC50 was 2.1 µM.

Regarding `CS(=O)(=O)c1ccc(F)cc1CN1CCN(c2ccc3nnc(C(F)(F)F)n3n2)CC1` [Example 765], the DC50 is 8.8 µM.

With `N#Cc1ccccc1CN1CCN(c2ccc3nnc(C(F)(F)F)n3n2)CC1` [Example 59, 2-[[4-[3-(trifluoromethyl)-[1,2,4]triazolo[4,3-b]pyridazin-6-yl]piperazin-1-yl]methyl]benzonitrile], the DC50 was found to be 2.7 µM.

Turning to `CN1CCN(C(=O)c2ccc(N3CCN(c4ccc5nnc(C(F)(F)F)n5n4)CC3)cc2)CC1` [Example 744], the DC50 worked out at 9.6 µM.

As for `CN(C)c1ccc(CN2CCN(c3ccc4nnc(C(F)(F)F)n4n3)CC2)cc1` [Example 106, N,N-dimethyl-4-[[4-[3-(trifluoromethyl)-[1,2,4]triazolo[4,3-b]pyridazin-6-yl]piperazin-1-yl]methyl]aniline], the DC50 came out at 4.4 µM.

For the compound `CN(C)C(=O)c1ccc2[nH]cc(C3CCN(c4ccc5nnc(C(F)(F)F)n5n4)CC3)c2c1` [Example 499], the DC50 is 1.7 µM.

On to `FC(F)(Cl)c1nnc2ccc(N3CCN(Cc4ccsc4)CC3)nn12` [Example 357, 3-[chloro(difluoro)methyl]-6-[4-(thiophen-3-ylmethyl)piperazin-1-yl][1,2,4]triazolo[4,3-b]pyridazine], for which the DC50 stood at 2.1 µM.

For `CC(C)(C)OC(=O)N1CC2CN(c3ccc4nnc(C(F)(F)F)n4n3)CC2C1` (centres unmarked) [Example 211, tert-butyl 5-(3-(trifluoromethyl)-[1,2,4]triazolo[4,3-b]pyridazin-6-yl)hexahydropyrrolo[3,4-c]pyrrole-2(1H)-carboxylate], the DC50 stood at 8.2 µM.

For `FC(F)c1nnc2ccc(N3CCCN(Cc4ccccc4)CC3)nn12` [Example 6, 6-(4-benzyl-1,4-diazepan-1-yl)-3-(difluoromethyl)-[1,2,4]triazolo[4,3-b]pyridazine], the DC50 is 7.5 µM.

With `CN(C)CCNC(=O)c1ccc(OC2CCN(c3ccc4nnc(C(F)(F)F)n4n3)CC2)cc1` [Example 429], the DC50 was found to be 2.6 µM.

As to `CCS(=O)(=O)N1CC2CN(c3ccc4nnc(C(F)(F)F)n4n3)CC2C1` (centres unmarked) [Example 215, 6-(5-ethylsulfonyl-1,3,3a,4,6,6a-hexahydropyrrolo[3,4-c]pyrrol-2-yl)-3-(trifluoromethyl)-[1,2,4]triazolo[3,4-f]pyridazine], the DC50 was 7.4 µM.

Regarding `Fc1ccc2[nH]cc(CN3CCN(c4ccc5nnc(C(F)(F)F)n5c4)CC3)c2c1` [Example 808], the DC50 came to 1 µM.

With `FC(F)(F)c1nnc2ccc(N3CC4CN(Cc5ccccc5)CC4C3)nn12` (centres unmarked) [Example 210, 6-(5-benzyl-1,3,3a,4,6,6a-hexahydropyrrolo[3,4-c]pyrrol-2-yl)-3-(trifluoromethyl)-[1,2,4]triazolo[3,4-f]pyridazine], the DC50 was 1.8 µM.

Turning to `FC(F)(F)c1nnc2ccc(N3CCC(COc4ccncc4)CC3)nn12` [Example 561], the DC50 is 2.9 µM.

On to `FC(F)(F)c1nnc2ccc(N3CCC(COc4cccc(Cl)n4)CC3)nn12` [Example 562, 6-[4-[[(6-chloropyridin-2-yl)oxy]methyl]piperidin-1-yl]-3-(trifluoromethyl)[1,2,4]triazolo[4,3-b]pyridazine], for which the DC50 worked out at 2 µM.

As for `FC(F)(F)c1nnc2ccc(N3CCC(Cc4cccnc4)CC3)nn12` [Example 539], the DC50 is 1.5 µM.

The values above are taken from patent US8003649B2 (AstraZeneca AB, priority 2007, dated 2011).
